Assay results reported in patent publication US10138242B2, “Pyrazolopyridine derivatives and their use in therapy” (HELMHOLTZ ZENTRUM MUENCHEN—DEUTSCHES FORSCHUNGSZENTRUM FUER …, priority 2015, dated 2018).

System: PEX5-PEX14 complex (biotin-coupled PEX5 peptide, His-tagged T. brucei PEX14)
Test: biochemical
Assay type: binding
Settings: 30 nM PEX5, 30 nM PEX14; quadruplicate; read-out: AlphaScreen EC50 [μM] (±SD)
Source text: (§1) The assay uses two types of beads: donor beads are coupled with streptavidin, and acceptor beads are coupled with an anti His-tag antibody. Upon excitation with light of a wavelength of 680 nm the donor beads produce reactive oxygen species that travel in solution only for a limited distance. If the acceptor beads are within that travel distance, it will absorb the reactive oxygen and emit light in the range of 520-620 nm. […] Thus, PEX5-PEX14 complex dissociation by a ligand caused decrease in light emission as the donor and acceptor beads were separated. Typically, we used 30 nM PEX5, 30 nM PEX14 and bead concentrations of 5 μg/mL. The PEX5-PEX14 complex was incubated with varying concentrations of inhibitor for 1 hour. Next, the beads were added and the system allowed to equilibrate for another hour. The raw data were fitted to four parameter sigmoidal curves by Origin software and EC50 values calculated. Each measurement was performed in quadruplicate and every experiment was accompanied with blank and reference samples (using non-biotynylated PEX5 peptide as a binding competitor).

Structure (SMILES) | EC50 [µM]
COc1ccc2c(OC)ccc(CN3CCc4c(c(C(=O)NCc5cccc6ccccc56)nn4CCO)C3)c2c1 [Compound 111] | 52.9

Biological target: PEX5-PEX14 complex (biotin-coupled PEX5 peptide, His-tagged T. brucei PEX14) (Trypanosoma brucei brucei, UniProt Q38CL4)
Sequence (Q38CL4 1-366, one chain of several): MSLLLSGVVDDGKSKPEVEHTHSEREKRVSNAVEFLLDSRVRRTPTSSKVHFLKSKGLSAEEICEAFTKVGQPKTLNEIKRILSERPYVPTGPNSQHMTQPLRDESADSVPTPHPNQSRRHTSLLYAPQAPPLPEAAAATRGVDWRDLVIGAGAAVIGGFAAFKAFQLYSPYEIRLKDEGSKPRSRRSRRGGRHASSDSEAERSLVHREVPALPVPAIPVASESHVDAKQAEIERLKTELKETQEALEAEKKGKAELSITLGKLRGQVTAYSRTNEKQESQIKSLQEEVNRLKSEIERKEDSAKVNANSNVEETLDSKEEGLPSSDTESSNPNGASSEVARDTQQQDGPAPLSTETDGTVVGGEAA
Test: biochemical
Assay type: binding
Settings: 30 nM PEX5, 30 nM PEX14; quadruplicate; read-out: AlphaScreen EC50 [μM] (±SD)
Source text: as §1

Structure (SMILES) | EC50 [µM]
COc1ccc(CN2CCc3c(c(C(=O)NCc4cccc5[nH]ccc45)nn3CCO)C2)c2ccccc12 [Compound 60] | 20.2
COc1ccc(CN2CCc3c(c(C(=O)NCc4cccc5cccnc45)nn3CCO)C2)c2ccccc12 [Compound 61] | 24.1
COc1ccc(CN2CCc3c(c(C(=O)NCc4cccc(C)c4)nn3CCO)C2)c2ccccc12 [Compound 62] | 38.1
COc1ccc(CN2CCc3nn(CCO)c(C(=O)NCc4cccc5ccccc45)c3C2)c2ccccc12 [Compound 90] | 66.1
COc1ccc(CN2CCc3nn4c(c3C2)C(=O)N(Cc2cccc3ccccc23)CC4)c2ccccc12 [Compound 91] | 19.2
COc1ccc(CN2CCc3c(c(C(=O)NCc4cccc5ccccc45)nn3CCNC(=N)N)C2)c2ccccc12 [Compound 94] | 1.4
COc1ccc(CN2CCc3c(c(C(=O)NCc4cccc5ccccc45)nn3CCN)C2)c2c1CCCC2 [Compound 100] | 4.62
NCCn1nc(C(=O)NCc2cccc3ccccc23)c2c1CCN(Cc1ccc(Cl)cc1)C2 [Compound 103] | 10
COc1ccc(CN2CCc3c(c(C(=O)NCc4cccc5ccccc45)nn3CC(O)CN)C2)c2ccccc12 (stereo not shown) [Compound 104] | 10.6
NCCn1nc(C(=O)NCc2cccc3ccccc23)c2c1CCN(Cc1ccc(Cl)c(Cl)c1)C2 [Compound 105] | 11.6
COc1ccc2c(CN3CCc4c(c(C(=O)NCc5cccc6ccccc56)nn4CCO)C3)c[nH]c2c1 [Compound 106] | 25
COc1ccc(CN2CCc3c(c(C(=O)NCc4cc(F)cc5ccccc45)nn3CCO)C2)c2ccccc12 [Compound 107] | 28.7
COc1ccc2[nH]c(CN3CCc4c(c(C(=O)NCc5cccc6ccccc56)nn4CCO)C3)cc2c1 [Compound 110] | 43.8
COc1ccc2cc(CN3CCc4c(c(C(=O)NCc5cccc6ccccc56)nn4CCO)C3)ccc2c1 [Compound 114] | 121
O=C(NCc1cccc2ccccc12)c1nn(CCO)c2c1CN(Cc1ccc(F)c3ccccc13)CC2 [Compound 115] | 121

System: T. brucei brucei bloodstream form parasites (strain Lister 427)
Test: Antitrypanosomal activity assay (resazurin; FIG. 2)
Assay type: cell-based
Settings: Trypanosoma brucei; 66 h + 6 h resazurin
Experimental: (A) The trypanosoma cell count and growth were evaluated at different doses of compounds of the invention.
Antitrypanosomal activity was tested on T. brucei brucei bloodstream from parasites (strain—Lister 427, VATMITat 1.2). Stock solutions of compounds (50 mM) were prepared in DMSO. Two fold serial dilutions of each compound (10 wells in each row) were prepared in 96 well plates in HMI111 medium (100 μl/well; quadruplicates; cf. also Hirumi et al., J. Parasitol. 75 (1989), 985-989). One well without compound, and one well with media alone were included in each row. […] The plates were incubated for 66 hours at 37° C. in the incubator with 5% CO2. 20 μl resazurin (Sigma, 0.125 mg/ml in Hanks Balanced Salt Solution) was added to all wells and the plate was further incubated for 6 hours. Change in color of resazurin (blue to pink) by living cells was measured with a 96 well plate reader (excitation at 530 nm, emission at 585 nm, filter cut-off: 570 nm). Percent inhibition values were calculated by setting the well without compound to “0% inhibition”.

Structure (SMILES) | IC50 [µM]
COc1ccc(CN2CCc3c(c(C(=O)NCc4cccc5[nH]ccc45)nn3CCO)C2)c2ccccc12 [Compound 60] | 5.6
COc1ccc(CN2CCc3c(c(C(=O)NCc4cccc5cccnc45)nn3CCO)C2)c2ccccc12 [Compound 61] | 7
COc1ccc(CN2CCc3c(c(C(=O)NCc4cccc(C)c4)nn3CCO)C2)c2ccccc12 [Compound 62] | 4.5
COc1ccc(CN2CCc3nn(CCO)c(C(=O)NCc4cccc5ccccc45)c3C2)c2ccccc12 [Compound 90] | 3.3
COc1ccc(CN2CCc3nn4c(c3C2)C(=O)N(Cc2cccc3ccccc23)CC4)c2ccccc12 [Compound 91] | 6.4
COc1ccc(CN2CCc3c(c(C(=O)NCc4cccc5ccccc45)nn3CCNC(=N)N)C2)c2ccccc12 [Compound 94] | 0.74
COc1ccc(CN2CCc3c(c(C(=O)NCc4cccc5ccccc45)nn3CCN)C2)c2c1CCCC2 [Compound 100] | 0.05
NCCn1nc(C(=O)NCc2cccc3ccccc23)c2c1CCN(Cc1ccc(Cl)cc1)C2 [Compound 103] | 0.18
COc1ccc(CN2CCc3c(c(C(=O)NCc4cccc5ccccc45)nn3CC(O)CN)C2)c2ccccc12 (stereo not shown) [Compound 104] | 0.2
NCCn1nc(C(=O)NCc2cccc3ccccc23)c2c1CCN(Cc1ccc(Cl)c(Cl)c1)C2 [Compound 105] | 0.34
COc1ccc2c(CN3CCc4c(c(C(=O)NCc5cccc6ccccc56)nn4CCO)C3)c[nH]c2c1 [Compound 106] | 4.6
COc1ccc(CN2CCc3c(c(C(=O)NCc4cc(F)cc5ccccc45)nn3CCO)C2)c2ccccc12 [Compound 107] | 2.9
COc1ccc2[nH]c(CN3CCc4c(c(C(=O)NCc5cccc6ccccc56)nn4CCO)C3)cc2c1 [Compound 110] | 2.6
COc1ccc2cc(CN3CCc4c(c(C(=O)NCc5cccc6ccccc56)nn4CCO)C3)ccc2c1 [Compound 114] | 3.9
O=C(NCc1cccc2ccccc12)c1nn(CCO)c2c1CN(Cc1ccc(F)c3ccccc13)CC2 [Compound 115] | 5.9
